Columns and labels:
[1] = test system: Escherichia coli; assay: Antibacterial activity, plate counting; assay type: cell-based; settings: for antibacterial rate against E. coli: KA and THIQ groups, Fig. 7A
Protocol: (§1) The antibacterial activity of 4c against Escherichia coli (E. coli) and Staphylococcus aureus (S. aureus) was evaluated using a modified plate counting method based on literature reports ([Ruan et al., 2024]). In this process, the strains were first activated on LB agar medium at 37 °C for 18 h. Subsequently, bacterial suspensions (1 × 10^8 CFU/mL) were prepared in fresh nutrient broth medium according to the 0.5 McFarland turbidity standard. These suspensions were then diluted to 1 × 10^5 CFU/mL for antibacterial testing. Various concentrations of 4c solutions were prepared and mixed with the 1 × 10^5 CFU/mL bacterial suspensions, with equal volumes of physiological saline added to the control group. The mixtures were incubated at 37 °C for 12 h, serially diluted, plated (100 μL) onto plate count agar medium, and incubated for 24 h at 37 °C for colony counting. Each experiment was conducted in triplicate, and the antibacterial rate was calculated using the following formula (2):(2) BacterialInhibitionrate(%)=(1−XS/X0)×100% where X0 represented the bacterial colony count of the control group post 24-h incubation, while XS denoted the average bacterial colony count of the sample group.

[2] = test system: Staphylococcus aureus; assay: Antibacterial activity, plate counting; assay type: cell-based; settings: for antibacterial rate against S. aureus: KA and THIQ groups, Fig. 7A
Protocol: as §1

[3] = test system: tyrosinase; assay: ANS-binding fluorescence measurement; settings: 4c from 0 μM to 50 μM
Protocol: An equal volume of ANS solution (80 μM) was added to the tyrosinase solution (400 U/mL). After thorough mixing, the mixture was left to stand at room temperature for 30 min. Subsequently, a specific amount of the ANS-labeled tyrosinase solution was extracted, vigorously shaken, and 4c was incrementally added dropwise to this mixture. The fluorescence spectrum of the mixture was scanned under conditions of an excitation wavelength of 390 nm, an emission slit width of 5 nm, and an emission wavelength range of 400–600 nm ([Lü et al., 2010]).

[4] = target: tyrosinase (Agaricus bisporus, UniProt C7FF04); assay: Kinetic analysis (Lineweaver-Burk plots, L-DOPA); assay type: biochemical, mushroom
Protocol: Reaction rates were determined using different concentrations of compounds (1.25, 2.5, and 5 μM) and L-DOPA solutions (0.5, 1, 1.5, and 2 mM).

[5] = test system: tyrosinase; assay: UV spectra measurement; assay type: binding; settings: addition of 4c
Protocol: Following the reported methods ([Chen et al., 2022]), a 3 mL assay system was established by adding a solution of 4c (300 μM, 350 μL) and tyrosinase solution (200 U/mL, 400 μL) to 2250 μL of PBS at pH 6.8. Spectral measurements were carried out using a UV-1800 spectrophotometer with wavelength scanning from 200 to 400 nm. Three experimental controls were implemented: (1) PBS buffer as blank reference, (2) 4c solution in PBS without enzyme, and (3) enzyme solution in PBS without 4c. To ensure measurement reliability, all spectra were acquired in triplicate through independent scanning processes. Background corrections were systematically applied using corresponding control solutions for each experimental condition.

[6] = test system: fresh-cut mushrooms; assay: Anti-browning study on fresh-cut mushrooms; parameters: species or system button mushrooms; settings: 100 μM sprayed, 4 °C, 7-day storage; versus KA and control
Protocol: Fresh and clean mushrooms of appropriate size were purchased from the local supermarket and their surfaces were evenly trimmed. […] CIE Lab values (L∗, a∗, and b∗) were measured using a colorimeter (NR60CP) to monitor the color changes of the fresh-cut mushrooms ([Wang et al., 2023]). The browning progression on mushroom surfaces was monitored via daily photographic documentation. The anti-browning efficacy was quantified using the total color difference (ΔE), calculated according to formula (4):(4) ΔE=[(Lt∗−Linitial∗)^2+(at∗−ainitial∗)^2+(bt∗−binitial∗)^2]^0.5

[7] = test system: Botrytis cinerea; assay: Antifungal activity, radial growth on PDA; assay type: cell-based; settings: 4c at high concentrations (5, 15, 30 μg/mL tested), 72 h
Protocol: Fungal contamination is a major cause of food spoilage. To evaluate the antifungal potential of 4c, its efficacy against the common phytopathogen Botrytis cinerea (B. cinerea) was investigated ([Zhou et al., 2025]). The assay was performed as follows: B. cinerea was first cultivated on Potato Dextrose Agar (PDA) to ensure robust growth. Subsequently, 4c was prepared at various concentrations and incorporated into PDA to form a drug-containing medium. Fungal mycelia were then inoculated onto the center of both the treatment and control plates, with the latter containing an equal volume of physiological saline instead of the compound. All plates were incubated at 27 °C for 72 h. Following incubation, the colonial growth on each Petri dish was photographed, with particular attention to the mycelial morphology and expansion. The antifungal activity was quantified by measuring the radial growth of the fungus, and the inhibition rate was calculated according to formula (3):(3) FungalInhibitionrate(%)=(1−DS/D0)×100% where D0 is the growth size of the control group, DS is the growth size of the group containing the sample group.

[8] = test system: zebrafish embryos; assay: Acute toxicity in zebrafish embryos (OECD FET No. 236); assay type: in vivo; settings: 4c 25, 50, 100 μM; KA 100 μM; observed at 48 hpf
Protocol: The acute toxicity assay was conducted in accordance with the Guidelines of Organization for Economic Co-operation and Development (OECD) for the Testing of Chemicals, Fish Embryo Acute Toxicity (FET) Test, No. 236 ([OECD, 2013]). All zebrafish procedures in this study were approved by Anhui Medical University Experimental Animal Ethics Committee (Protocol No.: LLSC20241625). The zebrafish were maintained in accordance with the established protocols of the Zebrafish International Resource Center. Surviving zebrafish were humanely euthanized at the end of the study to prevent prolonged suffering. The euthanasia method involved immersion in a buffered solution of tricaine methanesulfonate at a concentration of 300 mg/L for at least 10 min, followed by confirmation of death through the cessation of gill movement and heartbeat. Carcasses were promptly frozen at −20 °C and disposed of through authorized biological waste channels.
Referring to published methods with certain modifications ([Qian et al., 2018]), 13–15 h post-fertilization (hpf) zebrafish embryos were placed in small dishes containing 5 mL of culture medium in this experiment. Different concentrations of 4c (25, 50, 100 μM) and KA (100 μM) were added to the dishes, respectively, and the experiments were repeated three times. […]

[9] = test system: tyrosinase; assay: Fluorescence quenching of tyrosinase; assay type: binding
Protocol: Fluorescence intensity quantification was performed on a spectrofluorometer (Cary Eclipse) following a literature-established protocol ([Peng et al., 2021]), a tyrosinase solution (200 U/mL) was prepared in phosphate buffer (pH = 6.8). Incremental volumes of 4c solution at identical concentrations were added to the enzyme solution. With an excitation wavelength of 280 nm, an emission slit width of 5 nm, and the mixture was recorded in the 290–450 nm emission wavelength range.

[10] = Stability evaluation (HPLC content); assay type: physicochemical
Protocol: The purpose of stability testing is to provide evidence on how the quality of an active substance varies with time under the influence of a variety of environmental factors such as temperature, humidity, and light. Compound 4c with the strongest activity was evaluated for its stability. 4c was first dissolved in acetonitrile to prepare a 100 mM stock solution. This stock solution was then diluted to a 10 mM working concentration using different pH buffer solutions (4.0, 7.0 and 9.0). The samples were aliquoted into sealed vials. These vials were placed at different temperatures (25 °C, 40 °C and 60 °C) under both light-exposed and light-protected conditions for stability testing. The content change of the compound was monitored at scheduled time intervals (0 h, 24 h and 72 h) using an HPLC method.

[11] = target: tyrosinase; settings: ref Zhang et al., 2025; cited from earlier work
[12] = plot of log[(F0−F)/F] against log[I]
[13] = 4c at high concentrations (5, 15, 30 μg/mL tested)

Chain of tyrosinase (Agaricus bisporus, UniProt C7FF04) (C7FF04 1-392): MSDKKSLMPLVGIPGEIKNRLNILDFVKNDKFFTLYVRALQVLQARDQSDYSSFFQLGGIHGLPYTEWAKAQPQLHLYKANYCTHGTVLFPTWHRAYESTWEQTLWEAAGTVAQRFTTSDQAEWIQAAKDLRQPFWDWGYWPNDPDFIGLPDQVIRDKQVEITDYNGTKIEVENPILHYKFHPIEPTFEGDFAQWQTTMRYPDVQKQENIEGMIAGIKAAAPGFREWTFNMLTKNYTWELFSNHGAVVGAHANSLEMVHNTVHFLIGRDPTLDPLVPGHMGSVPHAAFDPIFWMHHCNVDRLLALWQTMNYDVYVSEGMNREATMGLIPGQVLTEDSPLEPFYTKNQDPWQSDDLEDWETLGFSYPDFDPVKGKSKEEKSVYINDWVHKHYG

c1ccc2c(c1)CCNC2 [THIQ, tetrahydroisoquinoline]
antibacterial rate against E. coli [1]: low antibacterial rates
antibacterial rate against S. aureus [2]: low antibacterial rates

COc1ccc2c(c1)CCN(Cc1cc(=O)c(O)co1)C2 [Compound 4c]
maximum fluorescence intensity of ANS-TYR [3]: gradually increased
Ki ([4]; L-DOPA substrate, slope replot, read-out: inhibition constant Ki for free enzyme): 1.48 µM
inhibition type ([4]; Lineweaver-Burk plots): mixed-type inhibitor
characteristic absorption peak of tyrosinase at 280 nm [5]: significant decrease
L∗ (lightness) of fresh-cut mushrooms [6]: highest L∗ value
total color difference ΔE of fresh-cut mushrooms [6]: lowest ΔE value
inhibition rate against B. cinerea [7]: ~90%
acute toxicity in zebrafish embryos [8]: no significant toxic effects
relative fluorescence intensity ([9]; 25 μM 4c): 52%
fluorescence intensity of tyrosinase ([9]; 25 μM 4c, 146.61 without inhibitor, emission peak 354 nm): 76.92
fluorescence quenching mechanism ([9]; Kq versus maximum dynamic quenching constant): static quenching
Stern-Volmer quenching constant Ksv ([9]; Stern-Volmer plot): 43000 L/mol
bimolecular quenching constant Kq ([9]; Stern-Volmer plot): 4.3 × 10^12 L mol^−1 S^−1
apparent binding constant Ka [9, 12]: 15100 L/mol
number of binding sites n [9, 12]: 1.11
inhibition rate against E. coli [1, 13]: ~100%
inhibition rate against S. aureus [2, 13]: ~100%
content (stability testing) ([10]; 25℃, pH 4, 0 h): 97.01%
content (stability testing) ([10]; 25℃, pH 4, 24 h): 98.10%
content (stability testing) ([10]; 25℃, pH 4, 72 h): 98.32%
content (stability testing) ([10]; 25℃, pH 7, 0 h): 98.63%
content (stability testing) ([10]; 25℃, pH 7, 24 h): 97.48%
content (stability testing) ([10]; 25℃, pH 7, 72 h): 98.03%
content (stability testing) ([10]; 25℃, pH 9, 0 h): 97.43%
content (stability testing) ([10]; 25℃, pH 9, 24 h): 97.48%
content (stability testing) ([10]; 25℃, pH 9, 72 h): 97.59%
content (stability testing) ([10]; 40℃, pH 4, 0 h): 97.02%
content (stability testing) ([10]; 40℃, pH 4, 24 h): 97.50%
content (stability testing) ([10]; 40℃, pH 4, 72 h): 97.41%
content (stability testing) ([10]; 40℃, pH 7, 0 h): 97.56%
content (stability testing) ([10]; 40℃, pH 7, 24 h): 96.04%
content (stability testing) ([10]; 40℃, pH 7, 72 h): 97.75%
content (stability testing) ([10]; 40℃, pH 9, 0 h): 96.51%
content (stability testing) ([10]; 40℃, pH 9, 24 h): 95.00%
content (stability testing) ([10]; 40℃, pH 9, 72 h): 96.12%
content (stability testing) ([10]; 60℃, pH 7, 0 h): 96.64%
content (stability testing) ([10]; 60℃, pH 7, 24 h): 96.84%
content (stability testing) ([10]; 60℃, pH 7, 72 h): 96.62%
content (stability testing) ([10]; 60℃, pH 9, 0 h): 96.61%
content (stability testing) ([10]; 60℃, pH 9, 24 h): 96.04%
content (stability testing) ([10]; 60℃, pH 9, 72 h): 96.26%
content (stability testing) ([10]; Light, pH 7, 0 h): 96.64%
content (stability testing) ([10]; Light, pH 7, 24 h): 96.84%
content (stability testing) ([10]; Light, pH 7, 72 h): 96.62%
content (stability testing) ([10]; Light, pH 9, 0 h): 96.61%
content (stability testing) ([10]; Light, pH 9, 24 h): 96.04%
content (stability testing) ([10]; Light, pH 9, 72 h): 96.26%
retention rate ([10]; after 72 h, all pH (4.0, 7.0, 9.0) and temperatures (25, 40, 60 °C)): > 95%

O=c1cc(CO)occ1O [Kojic acid]
acute toxicity in zebrafish embryos [8]: partial mortality
antibacterial rate against E. coli [1]: low antibacterial rates
antibacterial rate against S. aureus [2]: low antibacterial rates

Oc1ccccc1-c1nnc(S)o1 [Compound 2f, 5-(2-hydroxyphenyl)-1,3,4-oxadiazole-2-thiol]
IC50 [11]: 17.7 ± 0.21 µM

Source: publication PMC12681733, “Multifunctional kojic acid-tetrahydroisoquinoline hybrids: Synthesis, tyrosinase inhibition, and applications in the anti-browning of fresh-cut mushrooms” (Current Research in Food Science, 2025)
